Assay results reported in paper PMC5774136, “Alarm pheromone and kairomone detection via bitter taste receptors in the mouse Grueneberg ganglion” (BMC Biology, 2018).

Key:
Assay in all cases: Fura-2 calcium imaging, transfected HEK cells
Format in all cases: cell-based
[1] = target: T1, TAS2R143 (Mus musculus, UniProt Q7TQB9); details: 100 uM ligand; agonist; Galpha16-gustducin chimera co-expressed
T1 construct: N-terminal tag of first 39 residues of bovine rhodopsin; pcDNA3.1(+); HEK 293 cells (ATCC CRL-1573); co-expressed human Galpha16 / mouse gustducin C-terminal 44 chimera
T1 sequence (Q7TQB9 1-293): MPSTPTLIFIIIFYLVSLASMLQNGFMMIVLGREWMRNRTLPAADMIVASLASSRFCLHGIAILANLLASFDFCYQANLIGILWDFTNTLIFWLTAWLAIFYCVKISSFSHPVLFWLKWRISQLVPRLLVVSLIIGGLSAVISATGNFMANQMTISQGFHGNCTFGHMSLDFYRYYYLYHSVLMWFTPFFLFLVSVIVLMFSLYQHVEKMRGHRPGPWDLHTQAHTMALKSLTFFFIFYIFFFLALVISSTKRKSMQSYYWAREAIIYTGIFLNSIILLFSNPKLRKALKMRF

[2] = target: T1, TAS2R143; details: 500 uM ligand; agonist; Galpha16-gustducin chimera co-expressed
[3] = target: T2, TAS2R131 (Mus musculus, UniProt Q7M708); details: 100 uM ligand; weak agonist; Galpha16-gustducin chimera co-expressed
T2 construct: N-terminal tag of first 39 residues of bovine rhodopsin; pcDNA3.1(+); HEK 293 cells (ATCC CRL-1573); co-expressed human Galpha16 / mouse gustducin C-terminal 44 chimera
T2 sequence (Q7M708 1-310): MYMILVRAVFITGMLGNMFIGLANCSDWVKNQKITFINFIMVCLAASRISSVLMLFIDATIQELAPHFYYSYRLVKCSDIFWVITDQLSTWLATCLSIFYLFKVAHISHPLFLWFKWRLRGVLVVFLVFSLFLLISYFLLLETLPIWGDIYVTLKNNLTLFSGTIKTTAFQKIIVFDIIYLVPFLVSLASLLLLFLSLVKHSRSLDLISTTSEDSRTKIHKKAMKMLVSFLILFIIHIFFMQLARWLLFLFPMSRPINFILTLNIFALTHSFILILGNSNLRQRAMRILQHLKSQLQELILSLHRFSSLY

[4] = target: T3, TAS2R115 (Mus musculus, UniProt Q7M719); details: 100 uM ligand; weak agonist; Galpha16-gustducin chimera co-expressed
T3 construct: N-terminal tag of first 39 residues of bovine rhodopsin; pcDNA3.1(+); HEK 293 cells (ATCC CRL-1573); co-expressed human Galpha16 / mouse gustducin C-terminal 44 chimera
T3 sequence (Q7M719 1-310): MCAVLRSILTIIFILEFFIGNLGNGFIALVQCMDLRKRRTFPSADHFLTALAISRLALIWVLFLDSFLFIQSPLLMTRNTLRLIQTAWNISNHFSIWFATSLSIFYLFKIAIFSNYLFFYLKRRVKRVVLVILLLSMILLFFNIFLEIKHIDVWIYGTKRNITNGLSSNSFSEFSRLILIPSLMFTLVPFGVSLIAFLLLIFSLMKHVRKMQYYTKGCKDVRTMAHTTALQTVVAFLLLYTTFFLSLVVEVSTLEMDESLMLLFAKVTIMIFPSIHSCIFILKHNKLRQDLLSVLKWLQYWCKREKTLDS

Row | % of transfected cells responding at 100 uM [1] [%] | % of transfected cells responding at 500 uM [2] [%] | % of transfected cells responding at 100 uM [3] | % of transfected cells responding at 100 uM [4] | Compound
1 | 47 | – | – | – | CCCC1CCS1 (stereo not drawn) [2-PT, 2-propylthietane]
2 | 13 | – | – | – | CCC(C)C1=NCCS1 (stereo not drawn) [SBT, 2-sec-butylthiazoline]
3 | – | 51 | – | – | 2,4,5-trimethylthiazoline [TMT]
4 | 14 | – | ~ 5% | ~ 5% | CCc1cnccn1 [2-EP, 2-ethylpyrazine]
